{"source": "patent US5776935A", "about": "“Pyrido-phtalazin diones and their use against neurological disorders associated with excitotoxicity and malfunctioning of glutamatergic neurotransmission” (Merz & Co. GmbH & Co., priority 1996, dated 1998)", "key": {"[1]": {"biological_target": "T1, strychnine-insensitive glycine site (glycineB) of the NMDA receptor (rat cortical membranes) (Rattus norvegicus, UniProt P35439)", "T1 construct": "The cortex was dissected and homogenised in 20 volumes of ice-cold 0.32M sucrose; from tissue; host or cells: brain cortex membranes of male Sprague-Dawley rats", "assay": "[3H]glycine binding assay", "conditions": "20 nM [3H]glycine, 100 μM strychnine", "method": "Tissue preparation was performed according to Foster and Wong (1987). Male Sprague-Dawley rats (200-250g) were decapitated and their brains were removed rapidly. The cortex was dissected and homogenised in 20 volumes of ice-cold 0.32M sucrose using a glass-Teflon homogenizer. The homogenate was centrifuged at 1000×g for 10 min. The pellet was discarded and the supernatant centrifuged at 20,000×g for 20 min. The resulting pellet was resuspended in 20 volumes of distilled water and centrifuged for 20 min at 8000×g. Then the supernatant and the buffy coat were centrifuged three times (48,000× g for 20 min) in the presence of 5 mM Tris-HCl, pH 7.4. All centrifugation steps were carried out at 4° C. After resuspension in 5 volumes of 5 mM Tris-HCl, pH 7.4 the membrane suspension was frozen rapidly at -80° C. until the day of assay. On the day of assay the membranes were thawed and washed four times by resuspension in 5 mM Tris-HCl, pH 7.4 and centrifugation at 48,000× g for 20 min. The final pellet was suspended in assay buffer.\nThe amount of protein in the final membrane preparation was determined according to the method of Lowry (1951) with some modifications (Hartfree, 1972). 50 μl of Protein samples (in triplicates) were diluted to 1 ml with distilled water and treated with 0.9 ml of a solution containing 2 g potassium sodium tartrate and 10 g Na2 CO3 in 500 ml 1N NaOH and 500ml water. Blank and standard (with bovine serum albumin) were set up in the same way. The tubes were placed in a water bath at 50° C. for 10 min. and cooled at room temperature. 100 μl of a solution containing 2 g potassium sodium tartrate and 1 g CuSO4 x 5 H2 O in 90 ml water and 10 ml 1N NaOH were added. The samples were left at room temperature for at least 10 min., then 3 ml of Folin-Ciocalteu reagent (1 ml of reagent diluted with 15 ml water) was added rapidly during mixing. The tubes were again heated at 50° C. for 10 min. and cooled to room temperature. Absorbencies were then read in 1 cm cuvets at 650 nm. The final protein concentration used for our studies was between 100 and 250 μg/ml.\nIncubation in both binding assays was terminated using a Millipore filter system. The samples, all in triplicate, were rinsed three times with 2.5 ml ice cold assay buffer over glass fibre filters obtained from Schleicher & Schuell under a constant vacuum. Following separation and rinse the filters were placed into scintillation liquid (5 ml; Ultima Gold) and radioactivity retained on the filters was determined by using conventional liquid scintillation counter (Hewlett Packard, Liquid Scintillation Analyser). `Total binding` was the absolute amount of radioligand bound in the absence of any additives whereas `non-specific` binding was determined in the presence of a high concentration of competitor.\n[^3 H]glycine binding assay\n[^3 H]glycine binding assays were performed according to the method described by Kessler and co-workers (1989). Rat cortical membranes were prepared as previously described and the final pellet was suspended in 50 mM Tris-acetate, pH 7.4. At least 5 different concentrations of test compounds were incubated with 2OnM [^3 H]glycine for 30 min at 4° C. in the presence of 100 μM strychnine. All compounds were dissolved in water or DMSO, respectively. Non-specific binding was determined by including 100 μM glycine in the incubation mixture. The incubation was terminated by diluting the samples with 2 ml of stop solution (50 mM Tris-HCl including 10 mM magnesium sulphate, pH 7.4, cooled to <2° C.) followed by a further rinse with 2.5 ml buffer. Filtration was performed as rapidly as possible."}, "NMDA receptor": {"biological_target": "T2, NMDA receptor (Rattus norvegicus, UniProt P35439)", "T2 construct": "endogenous in cells", "assay": "Patch clamp, inward currents to NMDA in cultured superior colliculus neurones", "assay_type": "cell-based", "conditions": "for IC50 / IC50 against inward currents to NMDA: NMDA 200 μM; for voltage-dependence of effect: NMDA currents; for Kb: read-out: Kb (Cheng-Prusoff relationship)", "method": "Cells were mechanically dissociated in 0.05% DNAase / 0.3% ovomucoid (Sigma) following a 15 minute pre-incubation with 0.66% trypsin / 0.1% DNAase (Sigma). The dissociated cells were then centrifuged at 18G for 10 minutes, resuspended in minimum essential medium (Gibco) and plated at a density of 200,000 cells cm onto poly-L-lysine (Sigma)-precoated plastic petri dishes (Falcon). The cells were nourished with NaHCO3 /HEPES-buffered minimum essential medium supplemented with 5% foetal calf serum and 5% horse serum (Gibco) and incubated at 37° C. with 5%CO2 at 95% humidity. The medium was exchanged completely following inhibition of further glial mitosis with cytosine-β-D-arabinofuranoside (20 μM Sigma) after about 7 days in vitro. Thereafter the medium was exchanged partially twice weekly. […] Moreover, the relatively small neurones (soma 15-20 μm .phi.) are ideally suited to minimise problems of buffered diffusion for concentration clamp experiments.\nPatch clamp recordings were made from these neurones with polished glass electrodes (4-6 m.OMEGA.) in the whole cell mode at room temperature (20°-22° C.) with the aid of an EPC-7 amplifier (List). Test substances were applied by switching channels of a custom made fast superfusion system with a common outflow (10-20 ms exchange times). The contents of the intracellular solution were as follows (mM): CsCl (120), TEACl (20), EGTA (10), MgCl2 (1), CaCl2 (0.2), glucose (10), ATP (2), cAMP (0.25); pH was adjusted to 7.3 with CsOH or HCl. The extracellular solutions had the following basic composition (mM): NaCl (140), KCl (3), CaCl2 (0.2), glucose (10), HEPES (10), sucrose (4.5), tetrodotoxin (TTX 3*10-4). For most experiments glycine (1 μM) was present in all solutions. Experiments to test the glycine-dependence of the tricyclic \"pyrido-phtalazin diones\" were performed in the continuous presence of increasing concentrations of glycine (1-10 μM).\nThis effect was mediated at the glycineB site as evidenced by the parallel shift in the concentration-response curves in the presence of increasing glycine concentrations. Thus the Kbs of Mrz 2/502 as assessed according to the Cheng-Prusoff relationship were similar in glycine 1, 3 and 10 μM (80, 124 and 118 nM respectively). […] Choline derivatives had similar potencies to the free acids in vitro (Table14b)."}, "[2]": {"conditions": "glycine 1 μM, peak currents, read-out: Peak NMDA IC50"}, "[3]": {"conditions": "glycine 1 μM, plateau (steady-state) currents, read-out: Plateau NMDA IC50"}}, "note": "Read-outs that look alike come from different tables or passages of the source."}
{"compound": "O=c1[nH][nH]c(=O)c2nc3ccc(Br)cc3cc12", "note": "[Mrz 2/503]", "values": [{"measurement": "IC50", "setting": "[1]", "result": 13, "unit": "nM"}, {"measurement": "IC50", "setting": "NMDA receptor; [2]", "result": 1700, "unit": "nM"}, {"measurement": "IC50", "setting": "NMDA receptor; [3]", "result": 600, "unit": "nM"}]}
{"compound": "O=c1[nH]nc(O)c2c1cc1cc(Br)ccc1[n+]2[O-]", "note": "[Mrz 2/514, 8-bromo-4-hydroxy-1-oxo-1,2-dihydropyridazino[4,5-b]-quinoline 5-oxide]", "values": [{"measurement": "IC50", "setting": "[1]", "result": 4, "unit": "nM"}, {"measurement": "IC50 against inward currents to NMDA", "setting": "NMDA receptor", "result": "most potent"}, {"measurement": "IC50", "setting": "NMDA receptor; [2]", "result": 500, "unit": "nM"}, {"measurement": "IC50", "setting": "NMDA receptor; [3]", "result": 200, "unit": "nM"}]}
{"compound": "O=c1[nH]nc(O)c2c1cc1cc(Cl)ccc1[n+]2[O-]", "note": "[Mrz 2/502, 8-chloro-4-hydroxy-1-oxo-1,2-dihydropyridazino[4,5-b]-quinoline 5-oxide]", "values": [{"measurement": "IC50", "setting": "[1]", "result": 13, "unit": "nM"}, {"measurement": "IC50 against inward currents to NMDA", "setting": "NMDA receptor", "result": "most potent"}, {"measurement": "IC50", "setting": "NMDA receptor; [2]", "result": 800, "unit": "nM"}, {"measurement": "IC50", "setting": "NMDA receptor; [3]", "result": 300, "unit": "nM"}, {"measurement": "voltage-dependence of effect", "setting": "NMDA receptor", "result": "not voltage-dependent"}, {"measurement": "Kb", "setting": "NMDA receptor; glycine 1 μM", "result": 80, "unit": "nM"}, {"measurement": "Kb", "setting": "NMDA receptor; glycine 3 μM", "result": 124, "unit": "nM"}, {"measurement": "Kb", "setting": "NMDA receptor; glycine 10 μM", "result": 118, "unit": "nM"}]}
{"compound": "O=c1[nH][nH]c(=O)c2nc3cc(Cl)c(Cl)cc3cc12", "note": "[Mrz 2/515]", "values": [{"measurement": "IC50", "setting": "NMDA receptor; [2]", "result": 3700, "unit": "nM"}, {"measurement": "IC50", "setting": "NMDA receptor; [3]", "result": 900, "unit": "nM"}]}
{"compound": "O=c1[nH][nH]c(=O)c2nc3ccc(F)cc3cc12", "note": "[Mrz 2/519]", "values": [{"measurement": "IC50", "setting": "[1]", "result": 15, "unit": "nM"}, {"measurement": "IC50", "setting": "NMDA receptor; [2]", "result": 18000, "unit": "nM"}, {"measurement": "IC50", "setting": "NMDA receptor; [3]", "result": 5800, "unit": "nM"}]}
{"compound": "O=c1[nH][nH]c(=O)c2nc3ccc(Cl)cc3cc12", "note": "[Mrz 2/501]", "values": [{"measurement": "IC50", "setting": "[1]", "result": 80, "unit": "nM"}, {"measurement": "IC50", "setting": "NMDA receptor; [2]", "result": 2300, "unit": "nM"}, {"measurement": "IC50", "setting": "NMDA receptor; [3]", "result": 700, "unit": "nM"}, {"measurement": "voltage-dependence of effect", "setting": "NMDA receptor", "result": "not voltage-dependent"}]}
{"compound": "O=c1[nH]nc(O)c2c1cc1cc(F)ccc1[n+]2[O-]", "note": "[Mrz 2/516, 8-fluoro-4-hydroxy-1-oxo-1,2-dihydropyridazino[4,5-b]-quinoline 5-oxide]", "values": [{"measurement": "IC50", "setting": "[1]", "result": 17, "unit": "nM"}, {"measurement": "IC50", "setting": "NMDA receptor; [2]", "result": 6300, "unit": "nM"}, {"measurement": "IC50", "setting": "NMDA receptor; [3]", "result": 1600, "unit": "nM"}]}
